Earlier results on six compounds are cited in US6500801B1, “Treatment for Dutch elm disease” (The Governing Council of the University of Toronto, priority 1997, dated 2002).

For the series, the system named is strains of O. ulmi.
On to `CC1=Cc2c(C(C)C)ccc(C)c2C(=O)C1=O` [mansonone C], for which the “inhibition of growth of strains of O. ulmi” value (from here on “inhibition”) was “inhibit the growth”.
Consider `CC1=C2OCC(C)c3ccc(C)c(c32)C(=O)C1=O` (stereo not drawn) [mansonone E], for which the “inhibition” value is recorded as “inhibit the growth”.
With `CC1=Cc2c(c(C)cc3c2C(C)CO3)C(=O)C1=O` (stereo not drawn) [mansonone D], the “inhibition” value is “inhibit the growth”.
`CC1=COC2=C(C)C(=O)C(=O)c3c(C)ccc1c32` [mansonone F]: the “inhibition” value was “inhibit the growth”.
Consider `CC1=Cc2c(c(C)cc(O)c2C(C)C)C(=O)C1=O` [mansonone G], for which the “inhibition” value is “inhibit the growth”.
For `CC1=CC2=C(C(=O)C1=O)C(C)CCC2C(C)C` (stereo not drawn) [mansonone A], the “inhibition” value is given as “inhibit the growth”.
